# Activity calls are given as the source filed them. The calls are words filed in the database; no cut-off is given here.
# How the values were obtained:
# [1] = test system: MG-63; test: Increase in p21 protein expression in wild-type human MG63 cells at 0.01 to 0.3 uM by Western blotting method; format: functional, cell-based
# [2] = test system: MG-63; test: Induction of p53-independent p21 promoter activation (unknown origin) transfected in human MG63 cells expressing luciferase reporter gene by luciferase reporter gene assay; format: cell-based
# [3] = test system: MG-63; test: Induction of p53-independent p21 promoter activation (unknown origin) transfected in human MG63 cells expressing luciferase reporter gene at 0.3 uM by luciferase reporter gene assay relative to control; format: cell-based
structure (smiles),measurement,setting,value
COc1cccc2c1c(O)cc1oc3c(ccc4cccc(O)c43)c12,Activity,[1],Active
same,Activity,[2],Dose-dependent effect
same,fold change (FC),[3],2.5
